Laboratory results published in patent US20250057791A1, “PROTECTION AGAINST ARTHROPOD PARASITES WITH PURINERGIC RECEPTOR (OPR) ANTAGONISTS” (priority 2021, published 2025).
“And” between values parts separate entries of the source, which are not always exact repeats. Identical values can stand only once. Blank lines part the entries; values can stand above or below the compound they belong to.

Columns and labels:
[1] = test system: A. gambiae mouthpart ATP-sensitive receptor; test: Electrophysiological response to 200 pM ATP with PR antagonist admixed; type: cell-based, Anopheles gambiae; conditions: for effect on EP response to ATP, in words: 200 pM ATP, suramin at 1 nM; for ID95 in nM (±s.e.m.): increasing doses admixed to 200 pM ATP
Method: The tip recording method was used to record action potentials (spikes) from sensory cells in sensilla on A. gambiae labellum lobes.
Sensilla were exposed to test compounds and PR antagonists for ca. 2-4 s and spikes were counted in the first 2 s of recordings. Up to 4 test compounds were tested on a sensillum to evaluate potential agonists, each presented at 200 pM. To study responses as a function of dose for agonists ATP, adenosine, AMP, AMP-CPP and ATP+adenosine, up to 7 recordings were made at increasing doses of agonist from the same sensillum. Unless otherwise stated, recordings were made throughout from 4 to 16 sensilla from individual 4-6-day-old females per dose of agonist, antagonist and metal ion modulator. For example, a response curve established over 6 doses of an antagonist using 8 sensilla per dose involved recording from a sensillum of 48 separate mosquitoes. A given dose of a PR antagonist or metal ion modulator was only presented once to a sensillum. Two-second recordings were imported as ASCII files into DataView software for analysis of spike amplitude. Differences in spike amplitude generated by stimulation of one 8v sensillum/female with 1 mM sucrose (n=294 spikes from 6 females) 200 pM adenosine (n=207 spikes from 7 females) and 200 pM ATP (n=192 spikes from 7 females) were compared by measuring the spike amplitude in mV between the highest point of depolarisation and the lowest point of hyperpolarisation.
Pairwise comparisons of A. gambiae electrophysiological (EP) responses to ATP and adenosine alone and combined with a given dose of PR antagonist, EP responses to ATP alone and combined with a given dose of a metal modulator, and EP responses to ATP prior to and after exposure of a sensillum to a given dose of a PR antagonist were made with a one-tailed Wilcoxon signed-rank test for data showing a non-normal distribution, with a paired Student's t-test for normally distributed data showing homogeneous variance and with a Welch's t-test for normally distributed data showing non-homogeneous variance. Effects on feeding of adding ATP, AMP-CPP, adenosine, ATP+adenosine, AMP and ADP-βS, CPT with ATP or adenosine, TMP with ATP+adenosine, TMP+CPT with ATP+adenosine to the FS for A. gambiae, and of adding PR antagonists with ATP to the FS for A. stephensi were compared using one-tailed Mann-Whitney U-test or Welch's t-test, depending on data distribution; Holm's FWEC was applied where treatment comparisons involved the same positive control. Percent feeding inhibition induced by PR antagonists in A. stephensi was calculated using Abbott's formula.
Dose-response models fitted to mosquito data were generated using the ‘drm’ command in the “drc” R package (version 2.5-12). Best fitting models (goodness of fit) and effects of dose of a compound were assessed using, respectively, ‘modelFit’ and ‘noEffect’ functions in the same R package. A 3-parameter logistic model (L3) was fitted to spike-counts recorded to increasing doses of adenosine, AMP, ATP and AMP-CPP. Spike numbers recorded in response to 200 pM ATP with increasing doses of PR antagonists added were analysed using a 4-parameter log-logistic model (LL.4) for A-317491 and spinorphin, using a 4-parameter Weibull model (W1.4) for PPADS, RB-2 and TMP, and using a 3-parameter log-logistic model (LL.3) for suramin. An L3 model was fitted to proportions of females feeding on increasing doses of ATP. Feeding rates on 20 μM ATP with increasing doses of a PR antagonist added were analysed using a 4-parameter log-logistic model (LL.4) with the median of the positive control (20 μM ATP) fixed as the upper asymptote. Response dynamics in 3-parameter models are related to the slope b, the upper asymptote, and inflexion point of the model e (the ED50 value), whereas 4 parameter models also include the lower asymptote parameter. […]

A. gambiae = test: Membrane feeding assay, A. gambiae; type: in vivo, Anopheles gambiae; conditions: for effect on feeding on solution containing ATP, in words: 20 μM ATP, CPT at 10 μM; for ID95 in μM (±s.e.m.): feeding on 20 μM ATP in the feeding solution
Method: Experiments with A. gambiae and A. stephensi were made in a climate chamber at 28° C. and 80% RH during the last 6 hours of scotophase. As a sugar meal can interfere with the blood meal by reducing the number of females that feed, the sucrose solution supplied in rearing cages to mosquitoes employed for feeding experiments was reduced to 5%. […] The 5% sucrose solution was presented to mosquitoes from emergence on four 1 cm diam. cotton dental rolls (Hartmann A G, Neuhausen, Switzerland) inserted in 10 ml upturned glass vials placed in holes at each corner of the rearing cage ceiling. Cotton rolls were turned daily in vials and renewed every two days. Mosquitoes were not fed blood and were deprived of sucrose 17 to 20 hours before experiments. Thirty min before a feeding experiment, between 10-25, 6-day-old females that responded to activation by human breath were removed with a mouth aspirator from the rearing cage wall and placed in polystyrol cylinders with the floor cut out (10 cm dm×15 cm high; Semadeni, Ostermundigen, Switzerland) that served as feeding cages. Each cage was covered with mosquito netting at one end and a soft polyurethane lid at the other.
Mosquitoes were fed for 30 min using a feeding system (Hemotek®, Hemotek Ltd, Blackburn, UK) consisting of 3.5 ml stainless steel reservoirs 37 mm in diameter covered with a 60-90 μm thick silicone-impregnated membrane (Kröber and Guerin, 2007 in “Feeding assays for hard ticks”, Trends in parasitology 23, 445-449; doi 10.1016/j.pt.2007.07.010). Feeding reservoirs reached a temperature of 37° C. within 10 min and were placed on the netting of feeding cages. Mosquitoes were activated using a 200 ms pulse of pure CO2 (volume 6.25 ml) from a pressurised cylinder (Carbagas, Switzerland) using a solenoid valve that caused the CO2 level in the feeding cage to rise to at least 1,500 ppm. Between 3 and 4 sets of 10 feeding cages held in a custom-built Ertacetal® POM frame were tested per day, depending of the number of female mosquitoes available from the colony.
All compounds were tested in a mosquito feeding solution (FS) consisting of 25 mM dextrose, 25 mM NaCl buffered with 8.93 mM NaHCO3 adjusted to pH 7.4. Feeding responses of A. gambiae and A. stephensi to ATP as a function of dose were tested with between 7 to 10 feeding cages per dose. Each feeding experiment with an antagonist systematically included a treatment containing the FS as negative control along with a treatment containing the FS with […] added as positive control for A. gambiae and with […] added as positive control for A. stephensi. These positive and negative controls permitted to monitor any effect of experimental day on feeding responses as a function of dose for antagonists that were recorded over several days. […] Four to 10 cages each with 10 to 29 mosquitoes were tested per antagonist dose. […] The number of feeding cages used to test other compounds and their mixtures as feeding stimulants or as feeding inhibitors is listed on Table 6. The percentage of fed mosquitoes was estimated by visual inspection of abdominal distention that is indicative of engorgement.
Pairwise comparisons of A. gambiae electrophysiological (EP) responses to ATP and adenosine alone and combined with a given dose of PR antagonist, EP responses to ATP alone and combined with a given dose of a metal modulator, and EP responses to ATP prior to and after exposure of a sensillum to a given dose of a PR antagonist were made with a one-tailed Wilcoxon signed-rank test for data showing a non-normal distribution, with a paired Student's t-test for normally distributed data showing homogeneous variance and with a Welch's t-test for normally distributed data showing non-homogeneous variance. […]

Structure (SMILES): O=C(O)c1cc(C(=O)O)c(C(=O)N(Cc2cccc(Oc3ccccc3)c2)[C@H]2CCCc3ccccc32)cc1C(=O)O [A-317491, 5-[(3-phenoxyphenyl)methyl-[(1S)-1,2,3,4-tetrahydronaphthalen-1-yl]carbamoyl]benzene-1,2,4-tricarboxylic acid]
effect on EP response to ATP, in words [1]: inhibited
Mean no. of spikes per 2 s (±s.e.m.), ATP + antagonist ([1]; antagonist 0.5 nM + 200 pM ATP): 7.5 spikes per 2 s
effect on feeding on solution containing ATP, in words (A. gambiae): inhibited feeding
% fed mosquitoes (mean ± s.e.m.), ATP + antagonist (A. gambiae; antagonist 1 nM + 20 μM ATP): 43.71%

Structure (SMILES): Nc1ncnc2c1ncn2[C@@H]1O[C@H](COP(=O)(O)OP(=O)(O)OP(=O)(O)O)[C@@H](O)[C@H]1O [ATP, Adenosine 5′-triphosphate]
% fed mosquitoes (mean ± s.e.m.), ATP [20 μM] (A. gambiae; 20 μM ATP alone, positive control of the antagonist): 66.12% and 65.96% and 64.49% and 69.12% and 69.68% and 64.2% and 70.2% and 67.6%
% Engorged mosquitoes (A. gambiae; 20 μM in feeding solution): 67.5 ± 2.1%
% feeding at the ED95 (A. gambiae; 22.5 μM ATP): 68.15%
% mosquitoes fed at the asymptote (A. gambiae; 45 μM ATP): 70.25%
asymptote dose of feeding response (A. gambiae; dose dependent feeding): 45 µM
ED95, feeding stimulant (A. gambiae; dose dependent feeding on feeding solution): 22500 nM

Structure (SMILES): Cc1ccc(C(=O)Nc2ccc(S(=O)(=O)O)c3cc(S(=O)(=O)O)cc(S(=O)(=O)O)c23)cc1NC(=O)c1cccc(NC(=O)Nc2cccc(C(=O)Nc3cc(C(=O)Nc4ccc(S(=O)(=O)O)c5cc(S(=O)(=O)O)cc(S(=O)(=O)O)c45)ccc3C)c2)c1 [Suramin]
Mean no. of spikes per 2 s (±s.e.m.), ATP + antagonist ([1]; antagonist 0.6 nM + 200 pM ATP): 4.20 spikes per 2 s
ID95 in nM (±s.e.m.) [1]: 1.15 nM
% fed mosquitoes (mean ± s.e.m.), ATP + antagonist (A. gambiae; antagonist 1 μM + 20 μM ATP): 34.86%
ID95 in μM (±s.e.m.) (A. gambiae): 1.36 µM

effect on EP response to ATP, in words [1]: inhibited
Structure (SMILES): Cc1nc(C)c(C)nc1C [TMP, 2,3,5,6-tetramethylpyrazine]
Mean no. of spikes per 2 s (±s.e.m.), ATP + antagonist ([1]; antagonist 10 nM + 200 pM ATP): 11.2 spikes per 2 s
ID95 in nM (±s.e.m.) [1]: 27.50 nM
% Engorged mosquitoes (A. gambiae; 7.5 μM TMP + 20 μM ATP + 200 μM Adenosine): 36.7 ± 6.0%
effect on feeding on solution containing ATP, in words (A. gambiae): inhibited feeding
% fed mosquitoes (mean ± s.e.m.), ATP + antagonist (A. gambiae; antagonist 10 nM + 20 μM ATP): 50.47%
ID95 in μM (±s.e.m.) (A. gambiae): 1.28 µM
